Calls of active or inactive are those of the source. The rule behind the calls is not given here.
Tests used:
[1] = target: Cannabinoid receptor 1 (Homo sapiens, UniProt P21554); experiment: Displacement of [3H]-CP55940 from human CB1 receptor after 90 mins by liquid scintillation spectrophotometer analysis
[2] = target: Cannabinoid receptor 2 (Homo sapiens, UniProt P34972); experiment: Displacement of [3H]-CP55940 from human CB2 receptor after 90 mins by liquid scintillation spectrophotometer analysis
Chain of Cannabinoid receptor 2 (P34972 whole entry): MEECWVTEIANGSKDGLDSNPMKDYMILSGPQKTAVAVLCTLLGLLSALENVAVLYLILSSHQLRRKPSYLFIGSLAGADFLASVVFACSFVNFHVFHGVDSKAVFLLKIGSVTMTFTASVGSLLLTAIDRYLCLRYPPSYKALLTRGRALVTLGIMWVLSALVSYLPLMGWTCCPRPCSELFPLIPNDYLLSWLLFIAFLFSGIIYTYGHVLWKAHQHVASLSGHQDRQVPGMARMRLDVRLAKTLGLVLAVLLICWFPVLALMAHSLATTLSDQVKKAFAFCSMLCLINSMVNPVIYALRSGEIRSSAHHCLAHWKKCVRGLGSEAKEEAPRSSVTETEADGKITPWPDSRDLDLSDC

[3] = tested on: Rattus norvegicus; experiment: Antiobesity activity in Wistar rat assessed as reduction of food intake at 3 mg/kg, ip after 30 to 240 mins; type: functional, organism-based; parameters: dose 3 mg/kg
[4] = tested on: Rattus norvegicus; experiment: Increase of food intake in Wistar rat at 3 mg/kg, ip after 30 to 240 mins; type: functional, organism-based; parameters: dose 3 mg/kg
[5] = tested on: Rattus norvegicus; experiment: Antiobesity activity in Wistar rat assessed as reduction of food intake at 3 mg/kg, ip; type: functional, organism-based; parameters: dose 3 mg/kg
[6] = tested on: Rattus norvegicus; experiment: Antiobesity activity in Wistar rat assessed as reduction of food intake at 3 mg/kg, ip after 30 mins; type: functional, organism-based; parameters: dose 3 mg/kg
[7] = tested on: Rattus norvegicus; experiment: Antiobesity activity in Wistar rat assessed as reduction of food intake at 3 mg/kg, ip after 60 to 240 mins; type: functional, organism-based; parameters: dose 3 mg/kg

Chain of Cannabinoid receptor 1 (P21554 whole entry): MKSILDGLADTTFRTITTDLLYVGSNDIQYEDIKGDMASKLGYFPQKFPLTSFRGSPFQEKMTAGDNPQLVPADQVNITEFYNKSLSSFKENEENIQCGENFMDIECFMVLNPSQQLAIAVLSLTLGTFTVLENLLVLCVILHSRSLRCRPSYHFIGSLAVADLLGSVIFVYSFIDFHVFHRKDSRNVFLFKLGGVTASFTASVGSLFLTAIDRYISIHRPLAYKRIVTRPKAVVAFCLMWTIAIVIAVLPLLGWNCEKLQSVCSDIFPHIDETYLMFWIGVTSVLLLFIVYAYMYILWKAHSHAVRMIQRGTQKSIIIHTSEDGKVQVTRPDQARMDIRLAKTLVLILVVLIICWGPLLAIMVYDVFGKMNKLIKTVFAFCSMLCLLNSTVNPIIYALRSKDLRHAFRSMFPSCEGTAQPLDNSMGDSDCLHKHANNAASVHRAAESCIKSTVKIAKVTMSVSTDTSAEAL

SMILES | Ki [1] [µM] | Ki [2] [µM] | Activity [3] | Activity [4] | Activity [5] | Activity [6] | Activity [7]
CCCCCCCC/C=C\CCCCCCCCNC(=O)c1cc(-c2ccccc2)n(-c2ccccc2)n1 | > 40 | > 40 | inactive |  |  |  | 
CCCCCCCCCCCCCCCCNC(=O)c1nn(-c2ccccc2)c(-c2ccccc2)c1C | > 10 | > 10 | Active |  |  |  | 
CCCCCCCC/C=C\CCCCCCCCNC(=O)c1nc(-c2ccc(Cl)cc2)n(-c2ccc(Cl)cc2)n1 | > 40 | > 40 | inactive |  |  |  | 
CCCCCCCCCCCCCCCCNC(=O)c1cc(-c2ccccc2)n(-c2ccccc2)n1 | > 40 | > 10 | Active |  |  |  | 
CCCCCc1cc(-c2ccccc2)n(-c2ccccc2)n1 | 6.16 | 2.94 |  |  |  |  | 
Cc1c(C(=O)NN2CCCCC2)nn(-c2ccccc2)c1-c1ccccc1 | 9.69 | 18.2 |  | Active |  |  | 
CCCCCCc1cc(-c2ccc(Cl)cc2)n(-c2ccc(Cl)cc2Cl)n1 | > 40 | > 40 |  |  |  |  | 
CCCCCCCC/C=C\CCCCCCCCNC(=O)c1nn(-c2ccccc2)c(-c2ccccc2)c1C | > 40 | > 40 | inactive |  |  |  | 
CCCCCCc1nc(-c2ccc(Cl)cc2)n(-c2ccc(Cl)cc2Cl)n1 | 0.829 | 3.08 |  |  |  |  | 
CCCCCc1cc(-c2ccc(Cl)cc2)n(-c2ccc(Cl)cc2Cl)n1 | > 40 | 0.458 |  |  | Active |  | 
O=C(NN1CCCCC1)c1cc(-c2ccccc2)n(-c2ccccc2)n1 | 4.59 | 27.9 |  |  |  | inactive | Active
CCCCCCCCCCCCCCCCNC(=O)c1nc(-c2ccc(Cl)cc2)n(-c2ccc(Cl)cc2)n1 | > 10 | > 10 | Active |  |  |  | 

Reference: ChEMBL document CHEMBL2346571 (Bioorg Med Chem, 2013)
